Experimental data taken from US11040035B2, “3-oxo-2,6-diphenyl-2,3-dihydropyridazine-4-carboxamides” (BAYER PHARMA AKTIENGESELLSCHAFT, priority 2016, dated 2021).
Read-outs that look alike come from different tables or passages of the source.

Key:
[1] = test system: AHR-regulated gene CYP1A1; experiment: In vitro assay 3: AHR-regulated CYP1A1 expression in human cell line (U937, qPCR)
AHR [2] = molecular target: T1, AHR (Homo sapiens, UniProt P35869); experiment: In vitro assay 2: agonism in human cell line (transactivation assay)
T1 sequence (P35869 11-848): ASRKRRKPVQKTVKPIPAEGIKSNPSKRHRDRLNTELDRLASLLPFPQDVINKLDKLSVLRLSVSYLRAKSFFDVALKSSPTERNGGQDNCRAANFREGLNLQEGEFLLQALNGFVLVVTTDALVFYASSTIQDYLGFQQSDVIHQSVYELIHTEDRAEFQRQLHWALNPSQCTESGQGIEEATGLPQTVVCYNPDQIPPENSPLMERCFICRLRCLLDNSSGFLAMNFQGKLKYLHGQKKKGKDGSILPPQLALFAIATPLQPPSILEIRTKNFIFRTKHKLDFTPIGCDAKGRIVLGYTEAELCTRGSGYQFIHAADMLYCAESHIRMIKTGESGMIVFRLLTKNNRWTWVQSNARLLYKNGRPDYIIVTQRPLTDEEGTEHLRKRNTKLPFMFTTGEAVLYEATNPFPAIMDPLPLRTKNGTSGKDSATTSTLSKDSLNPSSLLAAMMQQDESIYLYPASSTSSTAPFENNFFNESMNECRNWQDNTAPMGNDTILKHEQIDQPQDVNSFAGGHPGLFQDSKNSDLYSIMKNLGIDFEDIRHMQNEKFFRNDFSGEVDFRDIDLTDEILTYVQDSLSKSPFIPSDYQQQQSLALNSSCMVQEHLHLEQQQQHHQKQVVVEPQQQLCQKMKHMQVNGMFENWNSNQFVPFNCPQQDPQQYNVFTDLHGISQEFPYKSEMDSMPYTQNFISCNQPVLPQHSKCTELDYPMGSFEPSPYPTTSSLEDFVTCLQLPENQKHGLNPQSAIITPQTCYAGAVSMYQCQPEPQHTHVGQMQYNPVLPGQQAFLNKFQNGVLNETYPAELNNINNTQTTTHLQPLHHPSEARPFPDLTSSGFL

AHR [3] = molecular target: T1, AHR; experiment: In vitro assay 1: antagonism in human cell line (transactivation assay, kynurenic acid prestimulated); conditions: Assay 1: AHR-luc Hum Antagonism IC50 [M], 150 μM kynurenic acid, 20 hours, firefly luciferase
Procedure: Transactivation assays were carried out in U87 glioblastoma cells (ATCC) endogenously expressing AHR. In addition the cells were stably transfected with an AHR inducible firefly luciferase reporter gene construct that carried AHR-binding sites (DRE) in its promoter and a renilla reporter gene construct with constitutively active promoter. Kynurenic acid is an endogenous AHR activating ligand and was used to prestimulate test cells prior to testing the antagonistic properties of compounds.
In Vitro Assay 1: Antagonism in Human Cell Line
Cells in medium (tryptophan free RPMI, 1% FCS, 2 mM Glutamine) supplemented with 150 μM kynurenic acid were grown for 20 hours in absence (negative control) or presence of increasing concentrations of test compounds (typical dilutions: 72 pmol/L, 0.25 nmol/L, 0.89 nmol/L; 3.1 nmol/L, 11 nmol/L, 38 nmol/L, 130 nmol/L, 470 nmol/L, 1.6 μmol/L, 5.7 μmol/L and 20 μmol/L in duplicates). As positive inhibition control cells supplemented with 150 μM kynurenic acid were incubated in presence of 5 μM Staurosporin. Normalization was done by positive and negative controls.
Firefly luciferase and Renilla activity was determined by the DualGlo Luciferase Assay System (Promega, #2920).

[4] = Homo sapiens, U-937, 6 h, read-out: Assay 3: Hum CYP1A1 Antagonism IC50 [M], U937 cells, 200 μM KA, 6 hours, qPCR
[5] = Assay 2: AHR-luc Hum Agonism IC50 [M], no kynurenic acid, 20 hours, firefly luciferase
[6] = read-out: Assay 3: Hum CYP1A1 Antagonism IC50, U937 cells, 200 μM KA, 6 hours, qPCR
[7] = read-out: Assay 2: AHR-luc Hum Agonism IC50, no kynurenic acid, 20 hours, firefly luciferase

Structure (SMILES)	IC50 [1, 4] [M]	IC50 (AHR [2]; [5]) [M]	IC50 (AHR [3]) [M]	IC50 [1, 6] [M]	IC50 (AHR [2]; [7]) [M]
COC[C@@H](CO)NC(=O)c1cc(-c2ccc(Cl)cc2)nn(-c2cccc(F)c2)c1=O [Example 314, 6-(4-chlorophenyl)-2-(3-fluorophenyl)-N-[(2R)-1-hydroxy-3-methoxypropan-2-yl]-3-oxo-2,3-dihydropyridazine-4-carboxamide]	2.31e-07	> 2e-05	9.54e-08		
O=C(NCC(O)C(F)(F)F)c1cc(-c2ccc(C(F)F)cc2)nn(-c2cccc(F)c2)c1=O (single isomer, unassigned) [Example 96, 6-[4-(Difluoromethyl)phenyl]-2-(3-fluorophenyl)-3-oxo-N-(3,3,3-trifluoro-2-hydroxypropyl)-2,3-dihydropyridazine-4-carboxamide]			2.92e-08	4.03e-08	> 2e-05
O=C(N[C@@H]1CC[C@@H]1O)c1cc(-c2ccc(Cl)cc2)nn(-c2cccc(F)c2)c1=O (relative stereo) [Example 357]	2.7e-08	> 2e-05	2.13e-08		
CC(NC(=O)c1cc(-c2ccc(Cl)cc2)nn(-c2cccc(F)c2)c1=O)C(C)(C)O (stereo not drawn) [Example 281, 6-(4-Chlorophenyl)-2-(3-fluorophenyl)-N-(3-hydroxy-3-methylbutan-2-yl)-3-oxo-2,3-dihydropyridazine-4-carboxamide]	7.59e-08	> 2e-05	2.2e-08		
C[C@@H](CO)NC(=O)c1cc(-c2ccc(Cl)cc2)nn(-c2cc(F)cc(F)c2)c1=O [Example 47, 6-(4-Chlorophenyl)-2-(3,5-difluorophenyl)-N-[(2S)-1-hydroxypropan-2-yl]-3-oxo-2,3-dihydropyridazine-4-carboxamide]	2.52e-08	> 2e-05	3.08e-08		
C[C@H](O)[C@H](C)NC(=O)c1cc(-c2ccc(Cl)cc2)nn(-c2cccc(F)c2)c1=O [Example 114, 6-(4-Chlorophenyl)-2-(3-fluorophenyl)-N-[(2S,3S)-3-hydroxybutan-2-yl]-3-oxo-2,3-dihydropyridazine-4-carboxamide]	5.27e-08	> 2e-05	2.3e-08		
O=C(N[C@@H]1CCCC[C@H]1O)c1cc(-c2ccc(Cl)cc2)nn(-c2cccc(F)c2)c1=O [Example 164, 6-(4-Chlorophenyl)-2-(3-fluorophenyl)-N-[(1R,2R)-2-hydroxycyclohexyl]-3-oxo-2,3-dihydropyridazine-4-carboxamide]	2e-06	> 2e-05	5.96e-07		

Next, values leading:

IC50 [1, 4] [M]	IC50 (AHR [2]; [5]) [M]	IC50 (AHR [3]) [M]	IC50 [1, 6] [M]	IC50 (AHR [2]; [7]) [M]	Structure (SMILES)
2.68e-08	> 2e-05	2.63e-08			CC[C@@H](CO)NC(=O)c1cc(-c2ccc(OC(F)(F)F)cc2)nn(-c2cccc(F)c2)c1=O [Example 172, 2-(3-Fluorophenyl)-N-[(2S)-1-hydroxybutan-2-yl]-3-oxo-6-[4-(trifluoromethoxy)phenyl]-2,3-dihydropyridazine-4-carboxamide]
1.05e-08	> 2e-05	2.9e-08			O=C(NC(CO)C1CC1)c1cc(-c2ccc(C(F)(F)F)cc2)nn(-c2cccc(F)c2)c1=O (racemic) [Example 267, N-[(1RS)-1-Cyclopropyl-2-hydroxyethyl]-2-(3-fluorophenyl)-3-oxo-6-[4-(trifluoromethyl)phenyl]-2,3-dihydropyridazine-4-carboxamide]
		4.22e-08	4.37e-08	> 2e-05	COc1ccc(-c2cc(C(=O)NC(CO)C(F)(F)F)c(=O)n(-c3cccc(F)c3)n2)cc1 (single isomer, unassigned) [Example 102, 2-(3-Fluorophenyl)-6-(4-methoxyphenyl)-3-oxo-N-(1,1,1-trifluoro-3-hydroxypropan-2-yl)-2,3-dihydropyridazine-4-carboxamide]
1.34e-07	> 2e-05	6.37e-08			COC[C@H](CO)NC(=O)c1cc(-c2ccc(C(F)(F)F)cc2)nn(-c2cccc(F)c2)c1=O [Example 257, (+)-2-(3-Fluorophenyl)-N-[(2S)-1-hydroxy-3-methoxypropan-2-yl]-3-oxo-6-[4-(trifluoromethyl)phenyl]-2,3-dihydropyridazine-4-carboxamide]
